Results published in ChEMBL document CHEMBL1275601, “Striking species difference in the contribution of concentrative nucleoside transporter 2 to nucleoside uptake between mouse and rat hepatocytes” (Antimicrob Agents Chemother, 2010).
Active and inactive are the calls of the source. The rule behind the calls is not given here.

Tests used:
Type in all cases: cell-based
[1] = biological target: T1, Equilibrative nucleoside transporter 1 (Rattus norvegicus) (UniProt O54698); assay: Transport through ENT1 in rat hepatocytes by oil filtration assay in presence of sodium ions in Kreb-henseleit buffer containing 100 uM NBMPR; conditions: Hepatocyte
T1 sequence (whole entry): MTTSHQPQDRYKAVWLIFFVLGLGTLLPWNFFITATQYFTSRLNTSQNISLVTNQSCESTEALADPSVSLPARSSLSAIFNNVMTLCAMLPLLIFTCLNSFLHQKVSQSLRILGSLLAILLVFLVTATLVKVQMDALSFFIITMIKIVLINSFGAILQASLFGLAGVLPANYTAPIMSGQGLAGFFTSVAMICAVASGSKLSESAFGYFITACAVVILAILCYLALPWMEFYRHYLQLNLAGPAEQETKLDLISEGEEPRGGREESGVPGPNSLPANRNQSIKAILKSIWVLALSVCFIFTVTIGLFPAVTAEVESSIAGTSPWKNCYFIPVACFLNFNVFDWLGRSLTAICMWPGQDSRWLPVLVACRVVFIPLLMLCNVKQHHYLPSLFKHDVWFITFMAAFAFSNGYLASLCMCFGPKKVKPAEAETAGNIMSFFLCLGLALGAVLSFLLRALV

[2] = biological target: T2, Sodium/nucleoside cotransporter 1 (Rattus norvegicus) (UniProt Q62674); assay: Transport through CNT1 in rat hepatocytes by oil filtration assay in presence of sodium ions in Kreb-henseleit buffer; conditions: Hepatocyte
T2 sequence (whole entry): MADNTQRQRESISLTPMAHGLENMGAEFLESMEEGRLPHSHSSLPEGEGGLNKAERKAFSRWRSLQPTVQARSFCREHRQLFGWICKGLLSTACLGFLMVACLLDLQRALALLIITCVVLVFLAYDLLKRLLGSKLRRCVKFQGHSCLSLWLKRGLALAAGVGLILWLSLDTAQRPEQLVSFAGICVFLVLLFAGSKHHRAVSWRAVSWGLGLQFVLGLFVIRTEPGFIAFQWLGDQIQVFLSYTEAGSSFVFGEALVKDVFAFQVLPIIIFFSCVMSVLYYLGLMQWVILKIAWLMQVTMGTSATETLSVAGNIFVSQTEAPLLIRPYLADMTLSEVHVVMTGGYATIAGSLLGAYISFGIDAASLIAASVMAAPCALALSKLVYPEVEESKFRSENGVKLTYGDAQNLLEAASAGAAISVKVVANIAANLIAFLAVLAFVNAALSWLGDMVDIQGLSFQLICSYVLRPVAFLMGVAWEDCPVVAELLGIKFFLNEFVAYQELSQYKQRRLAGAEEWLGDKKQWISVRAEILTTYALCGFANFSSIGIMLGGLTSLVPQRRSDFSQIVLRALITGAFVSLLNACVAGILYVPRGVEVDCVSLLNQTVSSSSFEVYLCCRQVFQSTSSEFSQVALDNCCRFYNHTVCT

[3] = biological target: T2, Sodium/nucleoside cotransporter 1 (Rattus norvegicus); assay: Transport through CNT1 in rat hepatocytes by oil filtration assay; conditions: Hepatocyte
[4] = biological target: T3, Sodium/nucleoside cotransporter 2 (Mus musculus) (UniProt O88627); assay: Transport through CNT2 in mouse hepatocytes by oil filtration assay in presence of sodium ions in Kreb-henseleit buffer; conditions: Hepatocyte
T3 sequence (whole entry): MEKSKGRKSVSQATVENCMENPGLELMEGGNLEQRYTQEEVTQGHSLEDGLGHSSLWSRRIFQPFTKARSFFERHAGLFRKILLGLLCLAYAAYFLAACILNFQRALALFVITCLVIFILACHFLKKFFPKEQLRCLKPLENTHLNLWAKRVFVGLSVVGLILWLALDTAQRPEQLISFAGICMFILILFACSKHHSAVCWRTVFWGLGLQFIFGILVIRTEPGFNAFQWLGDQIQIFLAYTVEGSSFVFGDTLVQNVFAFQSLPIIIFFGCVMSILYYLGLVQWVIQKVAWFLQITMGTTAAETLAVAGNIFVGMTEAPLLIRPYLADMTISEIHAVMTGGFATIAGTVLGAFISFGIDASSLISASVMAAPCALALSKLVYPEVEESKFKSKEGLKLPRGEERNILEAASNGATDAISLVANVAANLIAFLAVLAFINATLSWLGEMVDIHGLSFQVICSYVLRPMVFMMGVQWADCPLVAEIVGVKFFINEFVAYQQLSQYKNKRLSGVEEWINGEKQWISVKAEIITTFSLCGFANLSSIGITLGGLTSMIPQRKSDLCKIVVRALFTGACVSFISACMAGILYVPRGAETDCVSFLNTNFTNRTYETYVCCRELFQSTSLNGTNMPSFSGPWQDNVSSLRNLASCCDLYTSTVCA

[5] = test system: Hepatocyte; assay: Transport through CNT3 in rat hepatocytes by oil filtration assay in presence of sodium ions in Kreb-henseleit buffer
[6] = biological target: T3, Sodium/nucleoside cotransporter 2 (Mus musculus); assay: Transport through CNT2 in mouse hepatocytes by oil filtration assay pre-incubated with 20 ng/mL rotenone for 15 mins and 2 mM 2-deoxyglucose for 10 mins at 37 degC in presence of sodium ions in Kreb-henseleit buffer containing 100 nM NBMPR; conditions: Hepatocyte
[7] = biological target: T4, Sodium/nucleoside cotransporter 2 (Rattus norvegicus) (UniProt Q62773); assay: Transport through CNT2 in rat hepatocytes by oil filtration assay pre-incubated with 20 ng/mL rotenone for 15 mins and 2 mM 2-deoxyglucose for 10 mins at 37 degC in Kreb-henseleit buffer; conditions: Hepatocyte
T4 sequence (whole entry): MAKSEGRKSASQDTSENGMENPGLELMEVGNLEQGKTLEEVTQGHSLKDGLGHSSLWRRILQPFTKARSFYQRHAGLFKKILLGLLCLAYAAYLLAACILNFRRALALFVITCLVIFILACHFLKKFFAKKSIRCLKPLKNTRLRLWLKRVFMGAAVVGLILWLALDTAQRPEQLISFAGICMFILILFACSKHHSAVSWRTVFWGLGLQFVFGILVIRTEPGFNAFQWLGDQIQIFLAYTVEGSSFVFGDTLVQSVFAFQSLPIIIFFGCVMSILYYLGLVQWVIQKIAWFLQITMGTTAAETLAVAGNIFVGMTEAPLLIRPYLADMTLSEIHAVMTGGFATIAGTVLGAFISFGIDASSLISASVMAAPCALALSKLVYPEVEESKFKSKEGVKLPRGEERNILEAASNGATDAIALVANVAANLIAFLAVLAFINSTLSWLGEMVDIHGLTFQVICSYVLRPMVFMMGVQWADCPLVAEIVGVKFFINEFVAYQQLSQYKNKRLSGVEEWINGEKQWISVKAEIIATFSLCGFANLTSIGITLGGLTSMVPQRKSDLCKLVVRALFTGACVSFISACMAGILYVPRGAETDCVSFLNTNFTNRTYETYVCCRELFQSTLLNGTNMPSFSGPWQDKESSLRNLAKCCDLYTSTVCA

[8] = biological target: T4, Sodium/nucleoside cotransporter 2 (Rattus norvegicus); assay: Transport through CNT2 in rat hepatocytes by oil filtration assay pre-incubated with 20 ng/mL rotenone for 15 mins and 2 mM 2-deoxyglucose for 10 mins at 37 degC in presence of sodium ions in Kreb-henseleit buffer containing 100 nM NBMPR; conditions: Hepatocyte
[9] = biological target: T3, Sodium/nucleoside cotransporter 2 (Mus musculus); assay: Transport through CNT2 in mouse hepatocytes by oil filtration assay pre-incubated with 20 ng/mL rotenone for 15 mins and 2 mM 2-deoxyglucose for 10 mins at 37 degC in Kreb-henseleit buffer; conditions: Hepatocyte

SMILES | Activity [1] | Activity [2] | Activity [3] | Activity [4] | Activity [5] | Activity [6] | Activity [7] | Activity [8] | Activity [9]
Nc1ncnc2c1ncn2[C@@H]1O[C@H](CO)[C@@H](O)[C@H]1O | Active | Active | inactive | inactive | Active | – | – | – | –
NC(=O)c1ncn([C@@H]2O[C@H](CO)[C@@H](O)[C@H]2O)n1 | Active | Active | Active | inactive | Active | Active | Active | Active | Active
